Test results as given in patent publication US10596239B2, “Peptide mixture” (TARGOVAX ASA, priority 2013, dated 2020).
Values joined by “and” are separate entries in the source; they are usually repeats but may differ in a detail not shown here. Equal values may be shown once.

What was measured:
[1] = tested on: splenocytes; assay: Splenocyte proliferation assay (3H-thymidine) following subcutaneous vaccination of mice with TG02; assay type: cell-based, BALB/c mice; conditions: 1 μg/200 μL ConA, 5 days
Description: In this Example, mice were repeatedly vaccinated subcutaneously with TG02, in order to analyse the immune response. Following the vaccination, splenocytes were harvested, and the proliferative response of the splenocytes was measured.
The study was conducted with 3 groups, each compromising 10 female BALB/c mice. The start of the study was performed on two separate days on which 5 of the animals per group were treated. Therefore the groups were divided into part I and part II. The animals were treated subcutaneously at different time points (Table 12).
In all groups the test item was administered at repeated time points (Table 15) by subcutaneous injection between the nape of the neck and the shoulder. The application volume for all groups was 0.1 mL (0.80 mg TG02).
The spleen of all animals was removed, transferred to cell culture medium (RPMI 1640 medium supplemented with 10% FCS, 100 U/ml Penicillin, 100 μg/mL Streptomycin, 2 mM L-Glutamine, and 50 μM beta-mercaptoethanol) and stored on ice. All steps were performed sterile and cells were kept on ice.
A single cell suspension from splenic cells was generated using a cell strainer. After centrifugation (350 g, 5 min, 5±3° C.), supernatant was removed and the cell pellet was resuspended in ACK buffer and incubated for 5 min at RT. 10 mL cell culture medium was added. The samples were left 5 min on bench top to let the cell debris sediment. The suspension above the cell debris was transferred into another tube and was centrifuged (350 g, 5 min, 5±3° C.). The supernatant was removed and the cell pellet was resuspended in 10 mL cell culture medium. After counting of cells, 0.2 Mio cells were seeded in a 96 well plate (180 μL per well; 1,1 *10^6 cells/mL). 9 replicates were plated on each plate for each spleen. • (1) 1 plate for harvesting of supernatant for cytokine measurement after 24 h (results not shown) • (2) 1 plate for harvesting of supernatant for cytokine measurement after 48 h (results not shown) • (3) 1 plate for the proliferation assay
The following stimulations were performed: • 3 replicates: unstimulated (addition of 20 μL cell culture medium) • 3 replicates: stimulation with 10 μM TG02 (8 peptides, 10 μM end concentration per peptide, addition in 20 μL cell culture medium) • 3 replicates: stimulation with 1 μg/200 μL, ConA (Concanavalin A) (addition of 1 μg ConA in 2.0 μL cell culture medium)
Incubation at 37° C. and 5% CO2 for 24 h (1), […] or 5 days (3).
Proliferation Assay • (3) After 5 days, 1 μCi/well ^3H-Thymidine was added to the samples, which were then incubated for 18 h at 37° C. and 5% CO2. The plates were then frozen at ≤−20° C.
Plates were thawed at RT. After washing off the harvester, the samples were transferred to a filter plate using the harvester followed by 5 washing steps using water. Filter plates were dried at RT overnight. A foil was stuck to the bottom of the filter plates and 20 μL scintillation fluid was added to the wells. After incubation of 1 h at RT, the samples were measured using a TopCount NXT and the stimulation index (SI) was calculated. SI=CPM of stimulated samples/CPM of control samples.

[2] = tested on: T cells; assay: 3-days T cell proliferation assay (3H-thymidine) after three rounds of in vitro stimulation of PBMC bulk cultures with RAS peptides; assay type: cell-based, human; conditions: bulk cultures stimulated three rounds with TG02 + 13R, 10 μM peptide
Description: In this example, Buffy coats were collected from 4 normal human donors (Buffy 1, Buffy 2, Buffy 3, and Buffy 4) and were cultured in vitro. The in vitro PBMCs were stimulated with a single RAS peptide or a mixture of RAS peptides, and T cell proliferation assays performed.
The procedure must be performed at room temperature until point 5. All handling of cells in the open is done in a vertical laminar flow hood. • 1. Rapidly transfer the vials, each vial with frozen PBMC from a buffy coat (Buffy 1, Buffy 2, Buffy 3, and Buffy 4), to a water bath at 37° C. • 2. Shake the vials manually at regular intervals (approx. 2-3 min.) and remove them from the water bath while some ice is still present. • 3. When all the ice is melted, transfer 1 ml of CellGro DC medium drop-wise to the cell suspension. • 4. Transfer the cell suspension to a 50 ml tube containing 20 ml of CellGro DC medium. • 5. Centrifuge cells at 500 G for 5 min at room temperature. • 6. Resuspend the cells in 5 ml CellGro DC medium, • 7. Count the number of viable cells using a Bürker chamber or KOVA Galsstic slides and adjust the cell concentration to 2×10^6cells/ml in complete CellGro DC medium (see recipe). Total cell numbers: Buffy 1-45×10^6, Buffy 2-27.5×10^6, Buffy 3-40.5×10^6, and Buffy 4-40.5×10^6 cells. b. Bulk Cultures for Increasing Number of RAS Peptide Reactive T Cells • 1. […]

Row | Substance | Counts per minute (CPM), Splenocytes + ConA, mean ([1]; Mean Mouse #4, vaccinated with TG02) | Counts per minute (CPM), Splenocytes + ConA, mean ([1]; Mean Mouse #7, vaccinated with TG02) [CPM] | Counts per minute (CPM), Splenocytes + ConA, mean ([1]; Mean Mouse #24, vaccinated with TG02 + ViscoGel) [CPM] | Counts per minute (CPM), Splenocytes + ConA, mean ([1]; Mean Mouse #29, vaccinated with TG02 + ViscoGel) | Counts per minute (CPM), Splenocytes + ConA, replicate ([1]; Mouse #4, vaccinated with TG02) | Counts per minute (CPM), Splenocytes + ConA, replicate ([1]; Mouse #7, vaccinated with TG02) | Counts per minute (CPM), Splenocytes + ConA, replicate ([1]; Mouse #24, vaccinated with TG02 + ViscoGel) | Counts per minute (CPM), Splenocytes + ConA, replicate ([1]; Mouse #29, vaccinated with TG02 + ViscoGel) | Counts per minute (CPM), Splenocytes + ConA, mean ([1]; Mouse #30 (last line, mean), vaccinated with TG02 + ViscoGel) | Counts per minute (CPM), Splenocytes + ConA, replicate ([1]; Mouse #30, vaccinated with TG02 + ViscoGel) | Counts per minute (CPM), APC + T cell + 13C, replicate ([2]; Donor #3) | Counts per minute (CPM), APC + T cell + 13C, mean ([2]; Mean Donor #3) [CPM]
1 | Concanavalin A [ConA] | 15,210 CPM | 6158 | 8823 | 10,935 CPM | 15,113 CPM and 12,612 CPM and 17,906 CPM | 5305 CPM and 6252 CPM and 6916 CPM | 7834 CPM and 8578 CPM and 10,057 CPM | 9480 CPM and 13,292 CPM and 10,033 CPM | 36,687 CPM | 32,205 CPM and 35,668 CPM and 42,149 CPM | – | –
2 | KLVVVGAGCVGKSALTI (listed as Homo sapiens) [13C] | – | – | – | – | – | – | – | – | – | – | 27813 CPM and 32522 CPM and 28869 CPM | 29735
